According to US20200113181A1, “HERBICIDAL COMPOUNDS” (SYNGENTA PARTICIPATIONS AG, priority 2016, published 2020):

Key:
Assay type in all cases: in vivo
[1] = tested on: wheat plants (Triticum aestivum (TRZAW)); test: Crop phytotoxicity, wheat plants treated post-emergence
Protocol: (§1) Seeds of a variety of test species are sown in standard soil in pots (Lolium perenne (LOLPE), Setaria faberi (SETFA), Alopecurus myosuroides (ALOMY), Echinochloa crus-galli (ECHCG), Avena fatua (AVEFA)). After cultivation for one day (pre-emergence) or after 8 days cultivation (post-emergence) under controlled conditions in a glasshouse (at 24/16° C., day/night; 14 hours light; 65% humidity), the plants are sprayed with an aqueous spray solution derived from the formulation of the technical active ingredient in acetone/water (50:50) solution containing 0.5% Tween 20 (polyoxyethelyene sorbitan monolaurate, CAS RN 9005-64-5). Compounds are applied at […]. The test plants are then grown in a glasshouse under controlled conditions in a glasshouse (at 24/16° C., day/night; 14 hours light; 65% humidity) and watered twice daily. After 13 days for pre and post-emergence, the test is evaluated for the percentage damage caused to the plant. The biological activities are shown in the following table on a five point scale (5=80-100%; 4=60-79%; 3=40-59%; 2=20-39%; 1=0-19%).
Using procedures outlines above, wheat plants (Triticum aestivum (TRZAW) are treated post-emergence with compound 1.2 of the present invention or compound A-18 from WO 2013/079708. The results outlined in Table B2 below show % phytotoxicity observed and that compound 1.2 of the present invention is less damaging to wheat compared to compound A-18 disclosed in WO2013/079708.

[2] = tested on: soybean plants (Glycine max (GLYMX)); test: Crop phytotoxicity, soybean plants treated post-emergence
Protocol: [The procedure below names another organism; the source says it served here with some conditions changed.] as §1

Lolium perenne (LOLPE) = test: Glasshouse herbicide test, pre- and post-emergence, Lolium perenne; conditions: 250 g/h, evaluated after 13 days
How it was run: (§2)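 Percentage damage, read 13 days after treatment and banded into five classes (1=0-19% up to 5=80-100%). Plants in pots of standard soil received 250 g/h as a spray from acetone/water (50:50) containing 0.5% Tween 20. Application was one day (pre-emergence) or eight days (post-emergence) after sowing.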

Setaria faberi (SETFA) = test: Glasshouse herbicide test, pre- and post-emergence, Setaria faberi; conditions: 250 g/h, evaluated after 13 days
How it was run: as §2

Avena fatua (AVEFA) = test: Glasshouse herbicide test, pre- and post-emergence, Avena fatua; conditions: 250 g/h, evaluated after 13 days
How it was run: as §2

[3] = tested on: Echinochloa crus-galli (ECHCG); test: Glasshouse herbicide test, pre- and post-emergence, Echinochloa crus-galli; conditions: 250 g/h, evaluated after 13 days
How it was run: as §2

Row | SMILES | TRZAW % Phyto ([1]; rate 4 g/ha) | TRZAW % Phyto ([1]; rate 16 g/ha) | TRZAW % Phyto ([1]; rate 63 g/ha) | GLYMX % Phyto ([2]; rate 15 g/ha) | GLYMX % Phyto ([2]; rate 30 g/ha) | GLYMX % Phyto ([2]; rate 60 g/ha) | LOLPE POST, percentage damage caused to the plant (five point scale) (Lolium perenne (LOLPE); post-emergence) | LOLPE PRE, percentage damage caused to the plant (five point scale) (Lolium perenne (LOLPE); pre-emergence) | SETFA POST, percentage damage caused to the plant (five point scale) (Setaria faberi (SETFA); post-emergence) | SETFA PRE, percentage damage caused to the plant (five point scale) (Setaria faberi (SETFA); pre-emergence) | AVEFA POST, percentage damage caused to the plant (five point scale) (Avena fatua (AVEFA); post-emergence) | AVEFA PRE, percentage damage caused to the plant (five point scale) (Avena fatua (AVEFA); pre-emergence) | ECHCG POST, percentage damage caused to the plant (five point scale) ([3]; post-emergence) | ECHCG PRE, percentage damage caused to the plant (five point scale) ([3]; pre-emergence)
1 | CC#Cc1cc(C)c(C2C(=O)[C@@H]3[C@H](C2=O)[C@H]2CC[C@@H]3O2)c(C)c1 (some centres unmarked) [Compound A-18, reference compound] | 60% | 100% | 100% | 40% | 60% | 80% | – | – | – | – | – | – | – | –
2 | CC#Cc1ccc(C2C(=O)[C@@H]3[C@H](C2=O)[C@H]2CC[C@@H]3O2)c(OC)c1 (some centres unmarked) [Compound 1.2, 4-[2-methoxy-4-(prop-1-yn-1-yl)phenyl]-10-oxatricyclo[5.2.1.0^2,6]decane-3,5-dione] | 20% | 70% | 60% | – | – | – | 5 (5=80-100%) | 5 (5=80-100%) | 5 (5=80-100%) | 5 (5=80-100%) | 5 (5=80-100%) | 5 (5=80-100%) | 5 (5=80-100%) | 5 (5=80-100%)
